Test results as given in patent US20070060532A1, “Use of metformin and orlistat for the treatment or prevention of obesity” (Fournier Laboratories Ireland Limited, priority 2004, published 2007).

System: C57BL/6 EOPS male mice
Assay: Effect of metformin and orlistat co-administration on body weight in mice fed with high-fat diet
Format: in vivo
Conditions: p.o. mixed with the diet, orlistat 2 mg/kg, metformin 100 mg/kg, mean±s.e.m.
Method: This study was designed to evaluate the effects of a combination of metformin and orlistat on body weight.
Animals: C57BL/6 EOPS male mice, weighing approximately 20 g, were used in the study. C57BL/6 EOPS mice are normal mice which, when subjected to a high-fat diet, become obese and develop hyperglycaemia. They were put by 5 into individual cages in a temperature-, humidity- and light-controlled room (21-23° C.±2° C., 12 h-12 h light-dark cycle). […] After acclimatization, they were randomized into groups of 20, based on body weight.
The experimental groups were:
Group 1: mice fed with standard diet
Group 2: mice fed with high-fat diet, treated with orlistat 2 mg/kg p.o., mixed with the diet
Group 3: mice fed with high-fat diet, treated with metformin 100 mg/kg p.o., mixed with the diet
Group 4: mice fed with high-fat diet, treated with orlistat 2 mg/kg p.o. and metformin 100 mg/kg p.o., mixed with the diet.
Body weight was recorded at the beginning of the study, and after one and three weeks of treatment, respectively.
Statistics: All data are presented as mean±s.e.m. Results were subjected to covariance analysis corrected from baseline followed by Turkey-Kramer adjustment for multiple comparisons. A p<0.1 was considered significant (vs. standard diet).

Row | SMILES | Body weight gain (g) after 1 week | Body weight gain (g) after 3 weeks
1 | CN(C)C(=N)NC(=N)N [Metformin, 1,1-dimethylbiguanide] | +1.3 ± 0.14 g | +3.5 ± 0.25 g
2 | CCCCCCCCCCC[C@@H](C[C@@H]1OC(=O)[C@H]1CCCCCC)OC(=O)[C@H](CC(C)C)NC=O (relative stereo) [Orlistat, [2S-[2α(R*),3β]]-N-formyl-L-leucine 1-[(3-hexyl-4-oxo-2-oxetanyl)methyl]dodecyl ester] | +3.2 ± 0.48 g | +5.5 ± 0.63 g
